# Values quoted from earlier work as cited in patent US20090227460A1, “STABILIZED OIL-IN-WATER EMULSIONS INCLUDING MEPTYL DINOCAP” (Dow AgroSciences LLC, priority 2008, published 2009).
substance,measurement,value
"2,6-dinitro-4-octylphenyl crotonates and 2,4-dinitro-6-octylphenyl crotonates in which ‘octyl’ is a mixture of 1-methylheptyl, 1-ethylhexyl and 1-propylpentyl groups [Meptyl Dinocap]",solubility in water,0.151 µg/mL
